Experimental data reported in patent US20210277005A1, “PROANGIOGENIC COMPOSITIONS AND METHODS OF USE” (University of North Dakota, priority 2020, published 2021).

Experiments:
HUVEC cells [1] = assay: Effect of inhibitors/antagonists on the AdSucc-induced Ca2+ response; format: cell-based, human; settings: for effect on Ca2+ response upon AdSucc treatment: PLC inhibitor / IP3 antagonist
Procedure: (§1) In another example, AdSucc signaling properties were studied. To validate if AdSucc may have a signaling role, the effect of AdSucc on second messenger signaling molecules was studied. […] Our initial data was collected on a plate reader that averages multicellular responses upon AdSucc stimulation. […] To get insights into a mechanism for Ca^2+ release, cells were treated with phospholipase C (PLC) inhibitors U73122 and inositol phosphate triphosphate (IP3) antagonist 2-APB. […] In FIG. 3B, forskolin was used as a positive control (n=5). In FIG. 3C AdSucc is shown to increase cytosolic Ca^2+ in the primary rat brain microvascular endothelia 9b) and HUVEC (c) cells as determined using a plate reader, ATP was used as a positive control.

HUVEC cells [2] = assay: In vitro sprouting assay on collagen matrix; format: cell-based, human; settings: 24 h, normoxia; for invasion and sprouting of HUVEC cells: 0.5 mM in collagen matrix, n=4
Procedure: In another example AdSucc's role in angiogenesis was studied. Two different models were used to collect preliminary data in support of AdSucc angiogenic properties. First, an in vitro sprouting assay—a critical step in angiogenesis—was used. HUVEC cells were plated on collagen matrix containing AdSucc, SuccAd, VEGF, or vesicle control for 24 h. For quantification of invaded and sprouted structures, z-stacked images were taking using transmitted light illumination in identical fields following glutaraldehyde fixation and toluidine blue staining. […] The concentrations used (0.5 mM) were in the range found in the brain under low energy conditions.

HUVEC cells [3] = assay: Intracellular Ca2+ levels in HUVEC cells (plate reader, single cell imaging); format: cell-based, human
Procedure: as §1

nude mice [4] = assay: In vivo matrigel plaque angiogenesis assay (hemoglobin readout); settings: AdSucc 0.5 mM in matrigel, s.c. in nude mice, 10 days, n=4
Description: (§2) The pro-angiogenic AdSucc effect in vivo using a matrigel plaque loaded with AdSucc (using hemoglobin readout) or DIVA assay kit also loaded with AdSucc (using endothelial cell quantification with FITC labeled lectin) was also studied (FIG. 4B). In both assays, matrigel was implanted into nude mice (s.c.) for 10 days. […] In addition, in the matrigel assay, the concentration of AdSucc degradation products, SuccAd, was 1000-fold lower than AdSucc, and adenosine was undetectable in the matrigel (FIG. 4C).

nude mice [5] = assay: In vivo DIVA assay kit (endothelial cell quantification with FITC labeled lectin); settings: AdSucc 0.5 mM loaded, s.c. in nude mice, 10 days, n=4
Description: as §2

[6] = Brain AdSucc concentration after intranasal AdSucc treatment; format: in vivo, mice; settings: 10 μL/animal over 10 min, 20 mM in PBS, pH=7.2
HUVEC cells [7] = assay: cAMP levels in endothelial cells; format: cell-based, human; settings: forskolin positive control
Procedure: as §1

[8] = tested on: primary rat microvascular endothelial cells; assay: Intracellular Ca2+ levels in primary rat brain microvascular endothelial cells (plate reader); format: cell-based; settings: ATP positive control
Procedure: as §1

[9] = tested on: mice with transient middle cerebral artery occlusion (MCAO); assay: Stroke model: 45 min transient middle cerebral artery occlusion (MCAO), intranasal treatment; format: in vivo; settings: AdSucc intranasally 2 h after reperfusion and then every 24 h, 10 μL/animal, 20 mM in PBS; tested 1-7 days post MCAO
Procedure: In an example, Stroke was induced in 3 month old mice with 45 min of transient middle cerebral artery occlusion (MCAO) using an intraluminal filament and performed in a double-blind manner. To correct for edema and necrotic tissue loss, corrected infarct volume was calculated as [(volume of the contralateral hemisphere) minus (volume of the viable tissue in ischemic hemisphere)] after triphenyl tetrazolium chloride (TTC) staining on day 7 post-reperfusion. Following MCAO, a modified neurological deficiency score was used to grade neurological function. A series of motor (muscle status, movement, and balance), sensory (visual, tactile, and proprioceptive) and reflex tests were graded (0—being normal and 18—maximal deficit score) by investigator who was blinded to the experimental groups. Mice were tested 1, 3, 5, and 7 days post MCAO surgery. Deaths were plotted and analyzed as survival probability. Mice were treated with AdSucc intranasally 2 h after reperfusion and then every 24 h (10 μL/animal over 10 min, 20 mM in PBS, pH=7.2). […] FIG. 1A is a graph showing neurological deficiency in the test subjects. In FIG. 1A, higher numbers indicate higher deficiency between saline and AdSucc treated animals at the same test day. […] FIG. 1C is a graph showing representative blood flow rate during MCAO surgery as recorded with a laser Doppler sensor.

[10] = Matrigel analysis for products of AdSucc degradation upon incubation in vivo; design: species or system mice; settings: AdSucc loaded matrigel after in vivo incubation, n=3
Description: as §2

## NCCOB(c1ccccc1)c1ccccc1 [2-APB]
HUVEC cells [1]; HUVEC cells, n=5
  effect on Ca2+ response upon AdSucc treatment: significantly attenuated

## O=C(O)C[C@H](Nc1ncnc2c1ncn2[C@@H]1O[C@H](COP(=O)(O)O)[C@@H](O)[C@H]1O)C(=O)O [AdSucc, (2S)-2-({9-[(2R,3R,4S,5R)-3,4-dihydroxy-5-[(phosphonooxy)methyl]oxolan-2-yl]-9H-purin-6-yl}amino)butanedioic acid]
HUVEC cells [2]
  invasion and sprouting of HUVEC cells: significantly potentiated
HUVEC cells [2]; 0.5 mM
  invasion and sprouting effect compared to VEGF: higher effect compared to VEGF
HUVEC cells [3]; 2 micromolar Fura, 0 and 100 sec after AdSucc 0.3 mM in PBS
  Ca2+ increase by single cell Ca2+ imaging: independently confirmed
HUVEC cells [3]; plate reader, AdSucc at the concentration found in the ischemic brain, comparable to ATP treatment
  effect on intracellular Ca2+ levels: very profound effect
Nude mice [4]
  angiogenesis in loaded matrigel (hemoglobin): significantly increased
Nude mice [5]
  angiogenesis in DIVA assay (FITC lectin labeled endothelial cells): significantly increased
[6]
  brain AdSucc concentrations: significantly increased
HUVEC cells [7]
  effect on cAMP levels: no effect
[8]
  effect on intracellular Ca2+ levels: very profound effect
[9]
  outcome after stroke injury (neurological deficiency score, survival, corrected infarct volume): significant improvement

## Cc1c(C(=O)Nc2cccc(C(F)(F)F)c2)cc(-c2ccccc2)n1CCCN1CCOCC1 [HC 067047]
HUVEC cells [1]; TROV4 antagonist at 0.5 μM
  effect on AdSucc-induced Ca2+ signaling: did not affect

## Cc1cc(N2CCCCC2)nc2ccccc12 [ML 204]
HUVEC cells [1]; TRPC 4/5 antagonist at 25 μM
  effect on AdSucc-induced Ca2+ signaling: did not affect

## Cc1nc(N=Nc2ccc(S(=O)(=O)O)cc2S(=O)(=O)O)c(COP(=O)(O)O)c(C=O)c1O [PPADS]
HUVEC cells [1]; non-selective P2 purinergic antagonist, HUVEC cells, n=5
  effect on AdSucc-induced Ca2+ response: significantly attenuated

## O=C(O)C[C@H](Nc1ncnc2c1ncn2[C@@H]1O[C@H](CO)[C@@H](O)[C@H]1O)C(=O)O [SuccAd, N-(9-β-D-ribofuranosyl-9H-purin-6-yl)-L-aspartic acid]
[10]; lower than AdSucc
  concentration of the AdSucc degradation product in the matrigel, relative to AdSucc: 1000 fold
HUVEC cells [2]
  invasion and sprouting of HUVEC cells: did not have an effect

## COc1ccc2c(c1)CC[C@@H]1[C@@H]2CC[C@]2(C)[C@@H](NCCCCCCN3C(=O)C=CC3=O)CC[C@@H]12 [U73122]
HUVEC cells [1]; HUVEC cells, n=5
  effect on Ca2+ response upon AdSucc treatment: significantly attenuated

## Nc1ncnc2c1ncn2[C@@H]1O[C@H](CO)[C@@H](O)[C@H]1O [adenosine]
[10]
  degradation product level in the matrigel: undetectable
